# Measured values reported in ChEMBL document CHEMBL1201862, “PubChem BioAssay data set” (2004).
# The source made the active and inactive calls.
# Key:
# Aspartyl aminopeptidase = Aspartyl aminopeptidase (Plasmodium falciparum 3D7, UniProt Q8I2J3)
# Procathepsin L = Procathepsin L (Homo sapiens, UniProt P07711)
# [1] = cytotoxicity in HEK-293T cells, dose response, cytotoxicity control for BCR NF-kB inhibitor project, luminescence, B-cell screen hits (AID 489021); assay type: functional, cell-based;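 note: HEK-293T cells carrying an NF-kB luciferase reporter; cells exposed to compound for about 14 hours before viability readout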
# [2] = molecular target: T1, Eukaryotic translation initiation factor 2-alpha kinase 3 (Homo sapiens, UniProt Q9NZJ5); experiment: Dose response cell-based high-throughput screening assay to measure PERK inhibition. [Related pubchem assays: 1416 ]; assay type: functional
# T1 sequence (Q9NZJ5 whole entry): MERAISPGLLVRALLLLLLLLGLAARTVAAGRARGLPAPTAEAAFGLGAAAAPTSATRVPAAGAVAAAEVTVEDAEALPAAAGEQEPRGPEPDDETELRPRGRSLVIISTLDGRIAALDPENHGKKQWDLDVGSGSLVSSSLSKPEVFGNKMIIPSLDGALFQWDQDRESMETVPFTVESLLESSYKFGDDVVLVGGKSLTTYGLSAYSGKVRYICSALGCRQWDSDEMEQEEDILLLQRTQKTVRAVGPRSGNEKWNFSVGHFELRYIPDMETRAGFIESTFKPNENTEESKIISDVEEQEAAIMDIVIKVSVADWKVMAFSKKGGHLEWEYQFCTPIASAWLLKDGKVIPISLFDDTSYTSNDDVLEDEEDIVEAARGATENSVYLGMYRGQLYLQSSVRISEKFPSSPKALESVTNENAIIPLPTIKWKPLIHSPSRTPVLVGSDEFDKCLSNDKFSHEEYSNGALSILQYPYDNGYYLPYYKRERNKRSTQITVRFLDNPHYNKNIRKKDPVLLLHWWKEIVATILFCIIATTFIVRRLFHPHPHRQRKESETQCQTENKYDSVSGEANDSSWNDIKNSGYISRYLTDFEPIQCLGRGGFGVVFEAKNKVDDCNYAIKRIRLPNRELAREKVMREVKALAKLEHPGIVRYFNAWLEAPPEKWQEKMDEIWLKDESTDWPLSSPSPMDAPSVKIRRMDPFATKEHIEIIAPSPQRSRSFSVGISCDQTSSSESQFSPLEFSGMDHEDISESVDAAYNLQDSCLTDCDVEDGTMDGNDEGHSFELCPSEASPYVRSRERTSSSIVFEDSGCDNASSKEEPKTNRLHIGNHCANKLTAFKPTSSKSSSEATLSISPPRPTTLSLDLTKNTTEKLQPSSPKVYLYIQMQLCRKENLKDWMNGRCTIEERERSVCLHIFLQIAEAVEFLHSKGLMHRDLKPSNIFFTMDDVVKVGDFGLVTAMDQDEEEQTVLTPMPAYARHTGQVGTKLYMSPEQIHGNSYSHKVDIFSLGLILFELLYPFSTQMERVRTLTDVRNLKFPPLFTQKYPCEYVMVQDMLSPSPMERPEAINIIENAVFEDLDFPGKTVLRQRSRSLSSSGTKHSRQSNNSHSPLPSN
# [3] = molecular target: T1, Eukaryotic translation initiation factor 2-alpha kinase 3; experiment: Counterscreen assay for PERK inhibitors: Dose response cell-based high throughput screening assay to measure inhibition of PERK at 6 hours. [Related pubchem assays: 1522, 1416 ]; assay type: functional
# [4] = molecular target: Melanin-concentrating hormone receptor 1 (Homo sapiens, UniProt Q99705); experiment: Late-stage fluorescence-based counterscreen for antagonists of the G-protein coupled receptor 7 (GPR7): cell-based dose response assay to identify antagonists of the melanin-concentrating hormone receptor 1 (MCHR1). [Related pubchem assays (depositor defined):AID1861, AID1880, AID1952, AID2148, AID2251, AID2257, AID485339]; assay type: functional;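 note: stimulated with 30 nM MCH peptide agonist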
# [5] = molecular target: T2, Neuropeptides B/W receptor type 1 (Homo sapiens, UniProt P48145); experiment: GPR7 antagonist potency, late-stage follow-up, cell-based, fluorescence, dose response (AID 463251); assay type: functional
# T2 sequence (P48145 whole entry): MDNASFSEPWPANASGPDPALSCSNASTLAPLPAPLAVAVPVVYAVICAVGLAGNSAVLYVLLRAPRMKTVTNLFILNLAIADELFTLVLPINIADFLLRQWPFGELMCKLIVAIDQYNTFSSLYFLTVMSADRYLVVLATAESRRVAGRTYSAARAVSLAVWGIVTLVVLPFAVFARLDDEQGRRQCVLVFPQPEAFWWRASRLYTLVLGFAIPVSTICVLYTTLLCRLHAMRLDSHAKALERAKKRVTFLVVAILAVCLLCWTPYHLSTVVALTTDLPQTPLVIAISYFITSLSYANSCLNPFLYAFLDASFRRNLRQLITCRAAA
# [6] = insulin promoter down-regulators in MIN6 cells, imaging, high-content screening, mouse beta cells (AID 1628); assay type: functional
# [7] = cytotoxicity in MIN6 insulinoma cells, dose response, cytotoxicity control, cell-based, mouse insulinoma (AID 2122); assay type: functional;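 note: confirmatory high-throughput counterscreen run to flag cytotoxic compounds; mouse MIN-6 beta cells carrying an insulin promoter eGFP reporter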
# BJ [8] = experiment: cytotoxicity toward BJ-TERT fibroblasts, dose response, cell-based, RAS-independent, luminescence (AID 1933); assay type: functional; settings: Homo sapiens
# BJ [9] = experiment: cells; assay type: functional, cell-based; settings: Homo sapiens
# BJ [10] = experiment: cytotoxicity toward BJ-TERT-LT-ST fibroblasts, dose response, cell-based, RAS-independent, luminescence (AID 1935); assay type: functional; settings: Homo sapiens;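 note: BJ fibroblasts immortalized with TERT plus LT and ST oncogenes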
# [11] = cytotoxicity toward DRD oncogenic fibroblasts, dose response, cell-based, non-viral oncogenic, luminescence (AID 1934); assay type: functional; settings: Homo sapiens
# BJ [12] = experiment: cytotoxicity toward Ras-transformed BJeLR fibroblasts, dose response, cell-based, alamar blue fluorescence, cherrypicked samples (AID 2631); assay type: functional; settings: Homo sapiens;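 note: confirmatory dose-response assay in RAS-dependent BJ fibroblasts engineered with TERT, LT and ST, with cytotoxicity read by fluorescence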
# [13] = molecular target: G-protein coupled receptor 35 (Homo sapiens, UniProt Q9HC97); experiment: GPR35 antagonists blocking zaprinast-driven arrestin recruitment, primary screen, imaging, U2OS, beta-arrestin-GFP, zaprinast agonist (AID 2058); assay type: functional;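 note: antagonist potency meaning inhibition of agonist-induced arrestin redistribution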
# [14] = THP-1 cell cytotoxicity, dose response, cytotoxicity control for non-replicating M. tuberculosis project (AID 489025); assay type: functional
# cells = assay type: functional
# [15] = molecular target: T3, Mitochondrial peptide methionine sulfoxide reductase (Bos taurus, UniProt P54149); experiment: Absorbance-based biochemical high throughput dose response assay for activators of Methionine sulfoxide reductase A (MsrA).; assay type: functional
# T3 sequence (P54149 whole entry): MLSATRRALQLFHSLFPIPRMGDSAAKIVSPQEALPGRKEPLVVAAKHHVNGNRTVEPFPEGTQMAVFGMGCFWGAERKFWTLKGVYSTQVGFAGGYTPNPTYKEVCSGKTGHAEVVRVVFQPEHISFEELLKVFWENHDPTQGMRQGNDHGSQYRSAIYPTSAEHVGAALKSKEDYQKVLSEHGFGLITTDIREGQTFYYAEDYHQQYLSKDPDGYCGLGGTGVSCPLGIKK
# [16] = molecular target: T4, Delta-type opioid receptor (Homo sapiens, UniProt P41143); experiment: HTS Image-Based Screen for Antagonists of the DOR Receptor. [Related pubchem assays (depositor defined):AID1777, AID1785, AID1786, AID2133]; assay type: functional
# Mu-type opioid receptor = Mu-type opioid receptor (Homo sapiens, UniProt P35372); experiment: HTS Image-Based Screen for Agonists of the MOR Receptor. [Related pubchem assays (depositor defined):AID1777, AID1785, AID1786, AID2133]; assay type: functional;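 note: imaging of beta-arrestin GFP recruitment into spots after receptor activation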
# [17] = molecular target: T4, Delta-type opioid receptor; experiment: HTS Image-Based Screen for Agonists of the DOR Receptor. [Related pubchem assays (depositor defined):AID1777, AID1786, AID2133]; assay type: functional
# [18] = molecular target: T5, Kappa-type opioid receptor (Homo sapiens, UniProt P41145); assay type: functional
# Beta-galactosidase = Beta-galactosidase (Escherichia coli, UniProt Q8VNN2); assay type: functional
# [19] = molecular target: T5, Kappa-type opioid receptor; assay type: functional; remark: listed apart in the source
# Sequence of Procathepsin L (P07711 whole entry): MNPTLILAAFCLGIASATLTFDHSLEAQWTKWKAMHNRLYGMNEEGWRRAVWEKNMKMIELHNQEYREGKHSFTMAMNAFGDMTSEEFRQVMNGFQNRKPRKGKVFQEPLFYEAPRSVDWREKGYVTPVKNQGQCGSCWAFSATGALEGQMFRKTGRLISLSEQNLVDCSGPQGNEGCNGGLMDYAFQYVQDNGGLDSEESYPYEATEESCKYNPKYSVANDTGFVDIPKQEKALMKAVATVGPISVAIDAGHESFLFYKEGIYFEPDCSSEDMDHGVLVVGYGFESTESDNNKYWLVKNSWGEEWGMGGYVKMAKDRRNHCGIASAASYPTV
# T5 sequence (P41145 whole entry): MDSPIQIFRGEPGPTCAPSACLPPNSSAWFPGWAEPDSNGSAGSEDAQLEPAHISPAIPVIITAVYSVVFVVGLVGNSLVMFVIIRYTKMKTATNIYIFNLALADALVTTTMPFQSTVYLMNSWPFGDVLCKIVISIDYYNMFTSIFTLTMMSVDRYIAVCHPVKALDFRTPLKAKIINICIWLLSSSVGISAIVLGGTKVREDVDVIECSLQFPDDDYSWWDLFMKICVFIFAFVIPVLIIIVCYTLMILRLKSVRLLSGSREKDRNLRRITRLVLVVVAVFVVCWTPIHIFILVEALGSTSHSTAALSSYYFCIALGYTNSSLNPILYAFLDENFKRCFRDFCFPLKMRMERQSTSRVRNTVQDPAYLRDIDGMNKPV
# T4 sequence (P41143 whole entry): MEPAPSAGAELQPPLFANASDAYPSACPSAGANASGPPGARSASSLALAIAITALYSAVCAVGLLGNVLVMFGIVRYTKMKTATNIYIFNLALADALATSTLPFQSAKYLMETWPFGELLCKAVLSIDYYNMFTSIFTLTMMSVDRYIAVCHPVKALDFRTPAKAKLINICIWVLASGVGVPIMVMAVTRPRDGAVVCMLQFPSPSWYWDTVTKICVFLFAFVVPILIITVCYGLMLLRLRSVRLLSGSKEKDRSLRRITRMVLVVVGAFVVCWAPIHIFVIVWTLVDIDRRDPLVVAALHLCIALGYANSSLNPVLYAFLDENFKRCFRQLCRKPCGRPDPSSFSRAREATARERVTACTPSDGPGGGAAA
# Sequence of Aspartyl aminopeptidase (Q8I2J3 whole entry): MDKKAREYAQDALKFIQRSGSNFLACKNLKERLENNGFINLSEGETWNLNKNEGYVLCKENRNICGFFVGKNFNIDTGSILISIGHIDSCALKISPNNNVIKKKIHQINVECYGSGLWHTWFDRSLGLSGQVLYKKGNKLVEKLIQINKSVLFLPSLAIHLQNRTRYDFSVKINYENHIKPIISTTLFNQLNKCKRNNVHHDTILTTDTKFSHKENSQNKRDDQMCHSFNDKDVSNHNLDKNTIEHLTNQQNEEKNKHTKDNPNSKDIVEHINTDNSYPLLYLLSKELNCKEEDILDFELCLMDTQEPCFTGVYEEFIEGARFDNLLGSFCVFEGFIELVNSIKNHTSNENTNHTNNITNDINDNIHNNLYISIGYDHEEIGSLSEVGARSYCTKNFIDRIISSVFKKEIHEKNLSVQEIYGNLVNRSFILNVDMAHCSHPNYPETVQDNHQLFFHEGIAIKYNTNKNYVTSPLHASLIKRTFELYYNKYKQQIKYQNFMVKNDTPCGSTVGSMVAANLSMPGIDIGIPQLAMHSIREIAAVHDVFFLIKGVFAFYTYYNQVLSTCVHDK
# Sequence of Mu-type opioid receptor (P35372 whole entry): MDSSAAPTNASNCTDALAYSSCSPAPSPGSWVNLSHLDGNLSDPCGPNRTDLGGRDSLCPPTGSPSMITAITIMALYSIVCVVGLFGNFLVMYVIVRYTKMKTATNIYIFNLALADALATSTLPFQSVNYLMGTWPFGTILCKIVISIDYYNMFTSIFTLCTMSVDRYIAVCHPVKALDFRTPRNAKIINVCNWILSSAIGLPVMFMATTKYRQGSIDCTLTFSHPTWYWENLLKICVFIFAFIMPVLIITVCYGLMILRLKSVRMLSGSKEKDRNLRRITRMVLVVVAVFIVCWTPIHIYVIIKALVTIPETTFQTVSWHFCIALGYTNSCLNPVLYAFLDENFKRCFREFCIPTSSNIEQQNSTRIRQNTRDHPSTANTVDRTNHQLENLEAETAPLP
# Sequence of G-protein coupled receptor 35 (Q9HC97 whole entry): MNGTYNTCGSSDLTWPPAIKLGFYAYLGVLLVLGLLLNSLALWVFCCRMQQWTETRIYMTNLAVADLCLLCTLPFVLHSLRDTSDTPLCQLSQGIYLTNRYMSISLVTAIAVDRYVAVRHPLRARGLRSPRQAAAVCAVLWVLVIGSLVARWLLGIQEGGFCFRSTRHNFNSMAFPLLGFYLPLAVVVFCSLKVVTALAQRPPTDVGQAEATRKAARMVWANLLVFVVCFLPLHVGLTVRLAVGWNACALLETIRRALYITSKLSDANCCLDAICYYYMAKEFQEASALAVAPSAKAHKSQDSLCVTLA
# Sequence of Beta-galactosidase (Q8VNN2 whole entry): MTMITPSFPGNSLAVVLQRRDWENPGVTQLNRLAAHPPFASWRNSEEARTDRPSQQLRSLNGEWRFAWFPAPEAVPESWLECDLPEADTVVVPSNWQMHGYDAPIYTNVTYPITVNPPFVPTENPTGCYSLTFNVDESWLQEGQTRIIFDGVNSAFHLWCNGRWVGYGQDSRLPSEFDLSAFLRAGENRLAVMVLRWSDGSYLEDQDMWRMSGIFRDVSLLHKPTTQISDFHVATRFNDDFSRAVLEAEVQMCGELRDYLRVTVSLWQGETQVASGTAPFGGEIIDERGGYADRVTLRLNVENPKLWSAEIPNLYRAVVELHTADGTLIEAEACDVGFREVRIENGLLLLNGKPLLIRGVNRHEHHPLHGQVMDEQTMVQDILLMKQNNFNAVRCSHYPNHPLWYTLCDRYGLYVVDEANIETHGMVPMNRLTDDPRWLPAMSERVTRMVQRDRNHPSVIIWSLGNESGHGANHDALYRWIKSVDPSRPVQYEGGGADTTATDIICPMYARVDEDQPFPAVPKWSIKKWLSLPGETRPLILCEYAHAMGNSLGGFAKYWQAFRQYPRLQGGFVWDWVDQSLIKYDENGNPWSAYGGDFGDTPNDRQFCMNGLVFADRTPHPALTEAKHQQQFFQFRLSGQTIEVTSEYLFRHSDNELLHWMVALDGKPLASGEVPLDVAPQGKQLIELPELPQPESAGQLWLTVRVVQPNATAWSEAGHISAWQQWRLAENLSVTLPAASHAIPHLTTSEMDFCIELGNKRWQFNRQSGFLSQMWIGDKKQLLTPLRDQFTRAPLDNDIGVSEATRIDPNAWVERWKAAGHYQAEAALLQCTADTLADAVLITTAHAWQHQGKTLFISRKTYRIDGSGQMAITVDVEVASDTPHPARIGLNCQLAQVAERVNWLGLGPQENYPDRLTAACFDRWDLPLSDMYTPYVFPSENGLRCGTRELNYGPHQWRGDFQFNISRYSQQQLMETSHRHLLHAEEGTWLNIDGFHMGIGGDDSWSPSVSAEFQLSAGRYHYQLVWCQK
# Sequence of Melanin-concentrating hormone receptor 1 (Q99705 whole entry): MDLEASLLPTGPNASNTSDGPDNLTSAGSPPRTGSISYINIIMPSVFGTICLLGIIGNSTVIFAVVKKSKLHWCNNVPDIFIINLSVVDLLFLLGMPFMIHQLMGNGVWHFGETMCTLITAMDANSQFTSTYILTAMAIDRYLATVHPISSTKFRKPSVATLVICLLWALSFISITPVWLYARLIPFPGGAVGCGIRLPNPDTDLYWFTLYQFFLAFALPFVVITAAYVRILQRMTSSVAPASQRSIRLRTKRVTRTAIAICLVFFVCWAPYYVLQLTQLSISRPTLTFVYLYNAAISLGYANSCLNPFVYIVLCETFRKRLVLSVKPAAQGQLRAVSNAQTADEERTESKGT
compound,measurement,setting,value
CCOC(=O)C1=C(CS(=O)(=O)c2ccc(F)cc2)NC(=O)NC1c1ccc(O)c(O)c1 (centres undefined),IC50,Aspartyl aminopeptidase,1.52 µM (active)
same,IC50,Procathepsin L,> 59.6 µM (not active)
COc1ccccc1/C=C1\SC(=S)N(CCC(=O)NC2=NCCS2)C1=O,IC50,[1],> 80 µM (inactive)
c1ccc(NCn2cncn2)nc1,IC50,Aspartyl aminopeptidase,2.56 µM (active)
same,IC50,Procathepsin L,> 59.6 µM (not active)
CC(C)(C)c1ccc(C(=O)Oc2ccccc2CCC(=O)O)cc1,EC50,[2],> 55.7 µM (not active)
same,EC50,[3],> 55.7 µM (not active)
COc1ccc(-c2ccoc2)cc1[C@H]1[C@H]2C=CC[C@@H](C)[C@@H]2C(=O)N1Cc1ccccc1,IC50,[1],> 80 µM (inactive)
COc1ccc(Oc2c(N3CCCCC3)cnn(-c3ccc(C(C)C)cc3)c2=O)cc1,IC50,[4],5.7 µM (active)
same,IC50,[5],> 20 µM (inactive)
CCn1nc(C)c(CN2CCc3c([nH]c4ccccc34)C2c2ccc(F)c(OC)c2)c1C (centres undefined),IC50,[6],2.29 µM (active)
same,IC50,[7],13.6 µM (inactive)
O=C(NCc1cccnc1)c1ccc(NC(=O)c2cccc([N+](=O)[O-])c2)cc1,IC50,[6],0.576 µM (active)
same,EC50,BJ [8],27.4 µM (active)
same,IC50,[7],> 16 µM (inactive)
same,EC50,BJ [9],2.19 µM (inconclusive)
same,EC50,BJ [10],19.3 µM (active)
same,EC50,[11],> 150 µM (not active)
same,EC50,BJ [12],36 µM (active)
CCN(CC)c1ccc(-c2sc(Nc3ccccc3)n[n+]2-c2ccc(F)cc2)cc1,IC50,[13],0.626 µM (active)
same,CC50,[14],26.4 µM (active)
same,IC50,cells,14 µM (active)
same,EC50,[15],> 104 µM (inactive)
COc1ccccc1/N=c1\scc(-c2ccc3c(c2)NC(=O)CO3)n1CC1CCCO1 (centres undefined),IC50,[16],> 32 µM (inactive)
same,EC50,Mu-type opioid receptor,> 32 µM (inactive)
same,EC50,[17],> 32 µM (inactive)
same,IC50,[18],5.52 µM (active)
same,EC50,Beta-galactosidase,> 31.5 µM (inactive)
same,IC50,[19],> 32 µM
